The source of these data is PMC9481570, “A small molecule antagonist of SMN disrupts the interaction between SMN and RNAP II” (Nature Communications, 2022).

Structures are written as SMILES. Values joined by “and” are separate entries in the source; they are usually repeats but may differ in a detail not shown here. Equal values may be shown once.

Common to all, as to assay: Affinity-purification and mass spectrometry (AP-MS) chemical proteomics, all proteins;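 for Difference: 200 µM free competitor with 20 µM biotin probe overnight in lysate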
What all share (format): binding

Assay [1] deals with T1, proteins displaced from immobilized biotin-Cmpd 1 pulldowns (U2OS cell lysate) (Homo sapiens, UniProt O14979).
T1 construct: endogenous in cells; host or cells: U2OS
T1 sequence (O14979 whole entry): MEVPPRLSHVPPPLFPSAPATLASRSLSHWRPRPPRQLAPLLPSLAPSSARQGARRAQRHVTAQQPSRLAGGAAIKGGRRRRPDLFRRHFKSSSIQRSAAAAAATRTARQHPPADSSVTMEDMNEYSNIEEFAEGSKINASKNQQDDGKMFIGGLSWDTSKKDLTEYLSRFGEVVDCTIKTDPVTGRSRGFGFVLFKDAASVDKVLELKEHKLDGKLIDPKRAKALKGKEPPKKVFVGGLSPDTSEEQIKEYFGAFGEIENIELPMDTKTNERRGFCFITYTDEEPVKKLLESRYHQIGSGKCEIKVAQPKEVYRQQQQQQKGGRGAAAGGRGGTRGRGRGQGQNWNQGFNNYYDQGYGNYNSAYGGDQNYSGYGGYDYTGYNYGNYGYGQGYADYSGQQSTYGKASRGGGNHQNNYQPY
The settings on record: GN=HNRNPDL (A0A087WU03). As for the experimental part:
(§1) The samples for AP-MS were prepared following pulldown procedure as previously described with minor modifications. Briefly, U2OS cells were lysed in RIPA buffer and the cell lysate was equally divided into two groups: (1) DMSO group (control group): the cell lysate was incubated with 20 μM biotin-labeled compound 1; (2) Cpmd 1 group (sample group): the cell lysate was incubated with 20 μM biotin-labeled compound 1 and 200 μM free compound 1. Each group contains three biological replicates. They were incubated overnight at 4 °C, then 30 μL streptavidin beads (Thermo Fisher, 20353) was added and incubated at 4 °C for 1 h. The beads were then washed with RIPA buffer for 3 times, 10 min/time.
(§2) Beads were rinsed twice with 50 mM TEAB, pH 7.55, before eluting proteins with 25 μL of 5% SDS, 50 mM TEAB, pH 7.55. The sample was then centrifuged at 17,000 × g for 10 min to remove any debris. Proteins were reduced with 20 mM TCEP (Thermo Fisher, 77720) and incubated at 65 °C for 30 min. The sample was cooled to room temperature and 1 μL of 0.5 M iodoacetamide acid was added and allowed to react for 20 min in dark. Phosphoric acid (12%, 2.75 μL) was added to the protein solution, followed by adding 165 μL of binding buffer (90% methanol, 100 mM TEAB, pH 7.1). The resulting solution was added to S-Trap spin column (protifi.com) and passed through the column using a bench top centrifuge (30 s spin at 4000 × g). The spin column was washed with 400 μL of binding buffer and centrifuged. This step was repeated two more times. Then trypsin was added to the protein mixture at a mass ratio of 1:25 in 50 mM TEAB, pH 8.0, and the sample was incubated at 37 °C for 4 h. Peptides were eluted with 80 μL of 50 mM TEAB, followed by 80 μL of 0.2% formic acid, and finally 80 μL of 50% acetonitrile, 0.2% formic acid. The combined peptide solution was then dried in a speed vac and resuspended in 2% acetonitrile, 0.1% formic acid, 97.9% water and placed in an autosampler vial.
(§3) Samples were analyzed by nanoLC-MS/MS (nanoRSLC, Thermo Fisher) using an Aurora series (Ion Opticks) reversed phase HPLC column (25 cm length × 75 µm inner diameter) and directly injected to an Orbitrap Eclipse (Thermo Fisher) using a 120 min gradient (mobile phase A = 0.1% formic acid, mobile phase B = 99.9% acetonitrile with 0.1% formic acid; hold 2% B for 5 min, 2–6% B in 0.1 min, 6–25% in 100 min, 25–50% in 15 min) at a flow rate of 350 nL/min. Eluted peptide ions were analyzed using a data-dependent acquisition (DDA) method with resolution settings of 120,000 and 15,000 (at m/z 200) for MS1 and MS2 scans, respectively. DDA-selected peptides were fragmented using stepped high energy collisional dissociation (27, 32, and 37%).
(§4) The data of AP-MS were analyzed as a previously described method with minor modifications. Briefly, the raw MS files were searched with MaxQuant software (version 1.6.1.1, www.maxquant.org)[56] against the UniProt human protein database (www.uniprot.org) concatenated with common contaminants and the decoy database. The mass tolerance for precursor ions was set to 20 ppm and 4.5 ppm for the first and main search, respectively. The cysteine carbamidomethylation was set as fixed modification and methionine oxidation and N-terminal acetylation as variable modifications. Enzyme specificity was set to trypsin and a maximum missed cleavage was set as 2. The 1% false discovery rate (FDR) at both peptide and protein levels was applied for the analysis. Relative protein quantification was based on the label-free quantification incorporated in the MaxQuant software. The iBAQ intensity of proteins was obtained for the control and experimental samples. The missing iBAQ intensity was replaced by a random number, which was calculated from a normal distribution with a width of 0.3 and a downshift of 1.8 defined by Perseus software (version 1.6.5.0). The P-value was calculated by performing two-sample Student’s t-test. […]

For assay [2], the target named is T2, proteins displaced from immobilized biotin-Cmpd 1 pulldowns (U2OS cell lysate) (Homo sapiens, UniProt P04083).
T2 construct: endogenous in cells; host or cells: U2OS
T2 sequence (P04083 whole entry): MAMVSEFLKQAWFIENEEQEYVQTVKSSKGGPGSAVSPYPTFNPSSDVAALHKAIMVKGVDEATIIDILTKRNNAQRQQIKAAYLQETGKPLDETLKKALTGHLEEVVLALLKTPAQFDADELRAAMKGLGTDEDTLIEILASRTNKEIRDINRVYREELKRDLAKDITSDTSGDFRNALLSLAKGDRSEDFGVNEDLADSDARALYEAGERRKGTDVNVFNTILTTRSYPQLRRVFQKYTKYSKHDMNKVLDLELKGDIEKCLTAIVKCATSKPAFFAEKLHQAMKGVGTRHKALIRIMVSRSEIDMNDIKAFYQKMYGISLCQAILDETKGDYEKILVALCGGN
Particulars: GN=ANXA1 (P04083). As for the experimental part:
as §1, §2, §3, §4

Assay [3] has as its target T3, proteins displaced from immobilized biotin-Cmpd 1 pulldowns (U2OS cell lysate) (Homo sapiens, UniProt P07339).
T3 construct: endogenous in cells; host or cells: U2OS
The settings on record: GN=CTSD (P07339). As for the experimental part: as §1, §2, §3, §4

The target in assay [4] is T4, proteins displaced from immobilized biotin-Cmpd 1 pulldowns (U2OS cell lysate) (Homo sapiens, UniProt P22735).
T4 construct: endogenous in cells; host or cells: U2OS
T4 sequence (P22735 whole entry): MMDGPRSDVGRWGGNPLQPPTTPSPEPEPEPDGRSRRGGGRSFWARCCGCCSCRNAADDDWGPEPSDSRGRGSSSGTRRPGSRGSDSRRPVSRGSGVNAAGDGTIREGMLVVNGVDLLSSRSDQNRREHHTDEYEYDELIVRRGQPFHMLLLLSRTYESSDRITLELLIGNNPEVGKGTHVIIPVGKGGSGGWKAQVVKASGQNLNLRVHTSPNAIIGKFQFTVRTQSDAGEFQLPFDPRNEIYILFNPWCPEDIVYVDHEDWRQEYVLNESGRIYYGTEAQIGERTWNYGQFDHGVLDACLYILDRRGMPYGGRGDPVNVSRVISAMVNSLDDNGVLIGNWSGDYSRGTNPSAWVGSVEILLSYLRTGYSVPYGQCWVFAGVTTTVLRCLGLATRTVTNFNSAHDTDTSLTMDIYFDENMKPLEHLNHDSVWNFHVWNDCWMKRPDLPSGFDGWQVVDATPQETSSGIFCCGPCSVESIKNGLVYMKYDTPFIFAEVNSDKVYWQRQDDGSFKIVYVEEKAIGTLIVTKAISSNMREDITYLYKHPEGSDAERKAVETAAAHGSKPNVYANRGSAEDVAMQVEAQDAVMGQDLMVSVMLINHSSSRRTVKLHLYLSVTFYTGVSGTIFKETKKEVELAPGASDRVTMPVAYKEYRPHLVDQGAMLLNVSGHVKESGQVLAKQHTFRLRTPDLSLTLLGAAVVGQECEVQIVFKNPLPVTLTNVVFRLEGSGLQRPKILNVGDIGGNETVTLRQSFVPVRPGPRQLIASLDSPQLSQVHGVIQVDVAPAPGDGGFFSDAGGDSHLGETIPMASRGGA
The settings on record: GN=TGM1 (P22735). As for the experimental part: as §1, §2, §3, §4

The target in assay [5] is T5, proteins displaced from immobilized biotin-Cmpd 1 pulldowns (U2OS cell lysate) (Homo sapiens, UniProt P46783).
T5 construct: endogenous in cells; host or cells: U2OS
Particulars: GN=RPS10 (P46783). As for the experimental part: as §1, §2, §3, §4

Assay [6] concerns the target T6, proteins displaced from immobilized biotin-Cmpd 1 pulldowns (U2OS cell lysate) (Homo sapiens, UniProt P62136).
T6 construct: endogenous in cells; host or cells: U2OS
The settings on record: GN=PPP1CA (P62136). As for the experimental part:
as §1, §2, §3, §4

In assay [7] the target is T7, proteins displaced from immobilized biotin-Cmpd 1 pulldowns (U2OS cell lysate) (Homo sapiens, UniProt Q01105).
T7 construct: endogenous in cells; host or cells: U2OS
T7 sequence (Q01105 whole entry): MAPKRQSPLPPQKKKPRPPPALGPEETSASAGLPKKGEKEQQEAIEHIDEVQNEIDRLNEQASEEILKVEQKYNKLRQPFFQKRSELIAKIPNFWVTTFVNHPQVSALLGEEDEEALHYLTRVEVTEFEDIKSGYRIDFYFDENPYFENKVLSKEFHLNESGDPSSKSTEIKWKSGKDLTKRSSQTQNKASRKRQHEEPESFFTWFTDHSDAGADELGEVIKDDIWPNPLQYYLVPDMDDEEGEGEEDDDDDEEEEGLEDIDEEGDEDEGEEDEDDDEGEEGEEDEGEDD
Particulars: GN=SET (Q01105). As for the experimental part: as §1, §2, §3, §4

The target of assay [8] is T8, proteins displaced from immobilized biotin-Cmpd 1 pulldowns (U2OS cell lysate) (Homo sapiens, UniProt Q7Z2W4).
T8 construct: endogenous in cells; host or cells: U2OS
T8 sequence (Q7Z2W4 whole entry): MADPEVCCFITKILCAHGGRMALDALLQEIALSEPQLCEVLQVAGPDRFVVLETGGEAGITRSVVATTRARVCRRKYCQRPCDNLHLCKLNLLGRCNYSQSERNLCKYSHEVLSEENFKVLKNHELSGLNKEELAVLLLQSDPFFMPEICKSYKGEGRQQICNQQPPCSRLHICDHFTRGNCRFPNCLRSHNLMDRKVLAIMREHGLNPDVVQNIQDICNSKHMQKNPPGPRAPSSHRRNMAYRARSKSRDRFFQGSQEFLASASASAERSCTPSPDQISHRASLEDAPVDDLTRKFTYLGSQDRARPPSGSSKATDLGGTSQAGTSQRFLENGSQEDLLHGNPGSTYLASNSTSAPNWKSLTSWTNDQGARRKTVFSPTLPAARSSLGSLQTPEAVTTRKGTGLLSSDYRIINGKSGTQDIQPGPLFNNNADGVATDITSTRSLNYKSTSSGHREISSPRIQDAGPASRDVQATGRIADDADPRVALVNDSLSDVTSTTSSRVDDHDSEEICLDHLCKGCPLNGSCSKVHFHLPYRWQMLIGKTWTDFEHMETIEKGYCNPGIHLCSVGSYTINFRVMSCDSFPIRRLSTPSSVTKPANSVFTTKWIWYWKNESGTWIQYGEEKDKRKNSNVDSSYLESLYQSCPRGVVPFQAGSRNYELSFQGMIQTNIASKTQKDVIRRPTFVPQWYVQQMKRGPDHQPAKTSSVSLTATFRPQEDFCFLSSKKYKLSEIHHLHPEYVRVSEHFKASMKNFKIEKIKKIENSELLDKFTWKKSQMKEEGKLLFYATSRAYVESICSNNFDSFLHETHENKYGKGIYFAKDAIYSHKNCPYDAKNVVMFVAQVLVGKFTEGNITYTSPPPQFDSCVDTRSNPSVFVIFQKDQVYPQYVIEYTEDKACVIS
The settings on record: GN=ZC3HAV1 (Q7Z2W4). The method, then: as §1, §2, §3, §4

The target of assay [9] is T9, proteins displaced from immobilized biotin-Cmpd 1 pulldowns (U2OS cell lysate) (Homo sapiens, UniProt Q8WXX7).
T9 construct: endogenous in cells; host or cells: U2OS
T9 sequence (Q8WXX7 whole entry): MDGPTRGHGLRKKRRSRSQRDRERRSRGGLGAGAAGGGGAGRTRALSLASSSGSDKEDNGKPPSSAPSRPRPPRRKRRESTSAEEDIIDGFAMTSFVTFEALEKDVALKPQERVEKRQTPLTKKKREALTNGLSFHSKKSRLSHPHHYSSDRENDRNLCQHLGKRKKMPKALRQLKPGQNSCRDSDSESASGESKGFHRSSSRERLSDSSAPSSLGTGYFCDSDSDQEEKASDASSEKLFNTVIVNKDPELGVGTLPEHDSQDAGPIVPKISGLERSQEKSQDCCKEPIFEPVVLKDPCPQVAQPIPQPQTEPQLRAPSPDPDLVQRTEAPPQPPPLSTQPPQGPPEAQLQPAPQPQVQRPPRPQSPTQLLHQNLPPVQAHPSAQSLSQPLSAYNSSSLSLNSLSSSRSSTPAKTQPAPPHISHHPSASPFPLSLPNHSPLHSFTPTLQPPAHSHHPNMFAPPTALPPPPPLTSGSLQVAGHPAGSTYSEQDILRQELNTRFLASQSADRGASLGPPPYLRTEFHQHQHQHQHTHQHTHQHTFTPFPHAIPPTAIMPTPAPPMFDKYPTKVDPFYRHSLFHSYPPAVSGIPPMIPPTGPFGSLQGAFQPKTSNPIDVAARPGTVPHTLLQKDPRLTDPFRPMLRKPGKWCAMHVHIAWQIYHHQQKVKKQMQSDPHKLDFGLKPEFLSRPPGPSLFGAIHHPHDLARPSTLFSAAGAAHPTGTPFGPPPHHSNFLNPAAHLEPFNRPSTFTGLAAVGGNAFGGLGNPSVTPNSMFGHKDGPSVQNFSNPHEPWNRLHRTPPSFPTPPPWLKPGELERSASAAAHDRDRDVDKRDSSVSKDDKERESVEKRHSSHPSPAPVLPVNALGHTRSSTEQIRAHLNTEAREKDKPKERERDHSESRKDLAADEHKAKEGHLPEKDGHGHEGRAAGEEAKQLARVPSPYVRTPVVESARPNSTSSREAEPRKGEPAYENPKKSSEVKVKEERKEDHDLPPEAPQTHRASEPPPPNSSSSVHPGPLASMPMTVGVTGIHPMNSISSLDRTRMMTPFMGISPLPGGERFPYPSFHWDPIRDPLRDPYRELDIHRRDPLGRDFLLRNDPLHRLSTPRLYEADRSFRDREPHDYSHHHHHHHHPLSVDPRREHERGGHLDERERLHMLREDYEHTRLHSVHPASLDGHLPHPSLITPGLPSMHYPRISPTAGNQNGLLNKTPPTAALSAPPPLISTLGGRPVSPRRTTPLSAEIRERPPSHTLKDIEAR
Particulars: GN=AUTS2 (Q8WXX7). As for the experimental part: as §1, §2, §3, §4

Assay [10] concerns the target T10, proteins displaced from immobilized biotin-Cmpd 1 pulldowns (U2OS cell lysate) (Homo sapiens, UniProt Q9UKD2).
T10 construct: endogenous in cells; host or cells: U2OS
Particulars: GN=MRTO4 (Q9UKD2). As for the experimental part:
as §1, §2, §3, §4

T6 sequence (P62136 whole entry): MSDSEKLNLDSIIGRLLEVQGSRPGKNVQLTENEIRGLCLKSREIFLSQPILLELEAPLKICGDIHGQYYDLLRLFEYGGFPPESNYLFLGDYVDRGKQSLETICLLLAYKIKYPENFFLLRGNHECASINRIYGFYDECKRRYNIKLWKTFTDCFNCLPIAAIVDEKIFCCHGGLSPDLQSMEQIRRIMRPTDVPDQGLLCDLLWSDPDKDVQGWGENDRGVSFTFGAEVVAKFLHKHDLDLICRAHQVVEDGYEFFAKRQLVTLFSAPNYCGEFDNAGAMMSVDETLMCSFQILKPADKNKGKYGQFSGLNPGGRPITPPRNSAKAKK
T3 sequence (P07339 65-412): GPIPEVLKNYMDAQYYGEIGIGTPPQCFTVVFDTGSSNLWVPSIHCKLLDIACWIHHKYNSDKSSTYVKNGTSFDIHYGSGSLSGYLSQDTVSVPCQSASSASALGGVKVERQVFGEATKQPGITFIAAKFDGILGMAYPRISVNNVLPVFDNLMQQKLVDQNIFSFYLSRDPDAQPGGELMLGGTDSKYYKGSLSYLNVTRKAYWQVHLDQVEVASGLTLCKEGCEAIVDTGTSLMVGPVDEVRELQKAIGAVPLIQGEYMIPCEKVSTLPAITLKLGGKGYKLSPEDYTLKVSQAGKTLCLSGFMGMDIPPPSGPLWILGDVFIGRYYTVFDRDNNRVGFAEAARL

`Cn1c2c(c(=N)c3c1CCC3)CCC2` [Compound 1, 4-methyl-2,3,4,5,6,7-hexahydrodicyclopenta[b,e]pyridin-8(1H)-imine]: the Difference in [1] (Cmpd minus DMSO, -LOG(P-value) 0.798528) is given as 1.553; in assay [2] (Cmpd minus DMSO, -LOG(P-value) 1.67082) it was -2.872; in [3] (Cmpd minus DMSO, -LOG(P-value) 0.933319), -3.118; in assay [4] (Cmpd minus DMSO, -LOG(P-value) 1.15166), -2.41; in assay [5] (Cmpd minus DMSO, -LOG(P-value) 0.711634) it was 0.8419; in assay [6] (Cmpd minus DMSO, -LOG(P-value) 1.15373) it was 2.296. For the same molecule, the Difference in assay [7] (Cmpd minus DMSO, -LOG(P-value) 0.992199) is recorded as 4.792; in assay [8] (Cmpd minus DMSO, -LOG(P-value) 1.54428) it was 1.228; in assay [9] (Cmpd minus DMSO, -LOG(P-value) 1.37908), 1.498; in assay [10] (Cmpd minus DMSO, -LOG(P-value) 1.00789), 2.584. For the same molecule, the “iBAQ Cmpd” value in assay [1] (replicates 1-3) is 20.8595 and 22.7108 and 22.2667; in assay [2] (replicates 1-3), 14.2553 and 14.7701 and 16.566; in assay [3] (replicates 1-3), 18.4576 and 18.593 and 15.0798; in assay [4] (replicates 1-3) it was 15.9988 and 17.3288 and 14.7232; in assay [5] (replicates 1-3), 20.3934 and 20.6157 and 19.9486; in assay [6] (replicates 1-3), 15.2178 and 17.9982 and 17.5212. Besides, the “iBAQ Cmpd” value in assay [7] (replicates 1-3) is 21.3063 and 22.1737 and 20.6451; in [8] (replicates 1-3) it was 18.1805 and 17.0719 and 17.7662; in assay [9] (replicates 1-3), 16.2582 and 17.12 and 17.1513; in [10] (replicates 1-3) it was 18.8307 and 17.054 and 17.709.
